In patent US9139795B2, “Biodegradable lubricant composition” (IDEMITSU KOSAN CO., LTD., priority 2009, dated 2015):

What was measured:
[1] = Saponification value (JIS K 2503); assay type: physicochemical; details: base oil ester
Acid value (JIS K 2501) = assay type: physicochemical; details: base oil ester
[2] = Kinematic viscosity (JIS K 2283); assay type: physicochemical; details: base oil ester
[3] = Biodegradability, modified MITI test method (OECD301C); details: base oil ester alone
Protocol: A biodegradation rate was measured according to the modified MITI test method (OECD301C).

Substance	Saponification Value [1] [mgKOH/g]	Acid Value (Acid value (JIS K 2501)) [mgKOH/g]	Viscosity @ 40° C. [2] [mm^2/s]	Biodegradability [3] [%]
di(pentaerythritol)oleate [Ester E]	172	3.30	556.8	–
trimethylolpropane diisostearate [Ester G]	176	0.06	105.0	65.0
